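Five compound concentrations were applied to cells in 96-well plates for 48 hours; endpoints were derived by simple linear interpolation of the resulting dose-response curve. GI50 marks 50% less growth.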 Calls of active or inactive are those of the source. No stated cut-off is given here; in the data, active = GI50 up to about 1.1 µM and inactive = higher.
Columns and labels:
Experiment in all cases: inhibition of tumour cell growth, NCI panel, 48 h
A498 = system: A498
ACHN = system: ACHN
CCRF-CEM = system: CCRF-CEM
COLO 205 = system: COLO 205
HCC 2998 = system: HCC 2998
HCT-15 = system: HCT-15
HL-60 = system: HL-60
HOP-62 = system: HOP-62
KM12 = system: KM12
M14 = system: M14
MCF7 = system: MCF7
MDA-MB-231 = system: MDA-MB-231
MDA-MB-435 = system: MDA-MB-435
NCI-H460 = system: NCI-H460
OVCAR-3 = system: OVCAR-3
OVCAR-5 = system: OVCAR-5
PC-3 = system: PC-3
SNB-19 = system: SNB-19
T47D = system: T47D
UO-31 = system: UO-31

Measured: GI50

NC1=CN(Cc2ccccc2)C2=N/C(=C\c3ccccc3O)C(=O)N12
inactive: A498 > 100 µM | ACHN > 100 µM | CCRF-CEM 81.8 µM | COLO 205 > 100 µM | HCC 2998 > 100 µM | HL-60 > 100 µM | HOP-62 > 100 µM | KM12 > 100 µM | M14 > 100 µM | MCF7 > 100 µM | MDA-MB-231 > 100 µM | MDA-MB-435 > 100 µM | NCI-H460 > 100 µM | OVCAR-3 > 100 µM | OVCAR-5 > 100 µM | PC-3 > 100 µM | SNB-19 > 100 µM | T47D 94.4 µM | UO-31 70.3 µM
> 100 µM: HCT-15

Oc1cccc(-c2cn3cc(C(F)(F)F)ccc3n2)c1
active: UO-31 0.338 µM
inactive: A498 37.5 µM | ACHN 39.9 µM | CCRF-CEM 24.1 µM | COLO 205 39.2 µM | HCC 2998 22.6 µM | HL-60 32.6 µM | HOP-62 48.8 µM | KM12 28.6 µM | M14 39.3 µM | MCF7 15.4 µM | MDA-MB-231 43.7 µM | MDA-MB-435 32 µM | NCI-H460 26.1 µM | OVCAR-3 19.5 µM | OVCAR-5 37.2 µM | PC-3 32.2 µM | SNB-19 70.1 µM | T47D 2.39 µM
29.2 µM: HCT-15

O=C(O)CCC(=O)c1ccc2ccc3cccc4ccc1c2c34
38 µM: HCT-15
inactive: A498 67.5 µM | ACHN 52.7 µM | CCRF-CEM 45.3 µM | COLO 205 44.9 µM | HCC 2998 21.4 µM | HL-60 23 µM | HOP-62 84.5 µM | KM12 55.2 µM | M14 > 100 µM | MCF7 54.3 µM | MDA-MB-231 64 µM | MDA-MB-435 98.2 µM | NCI-H460 39.3 µM | OVCAR-3 53.7 µM | OVCAR-5 > 100 µM | PC-3 67.9 µM | SNB-19 92.9 µM | T47D 83 µM | UO-31 94.6 µM

COC1=C(Cl)C(=O)c2c(O)ccc(O)c2C1=O
active: A498 0.794 µM | ACHN 1.02 µM | CCRF-CEM 0.18 µM | COLO 205 0.212 µM | HL-60 0.0393 µM | HOP-62 0.873 µM | M14 0.541 µM | MCF7 1.04 µM | OVCAR-3 0.476 µM | T47D 1.03 µM
inactive: HCC 2998 13 µM | KM12 6.17 µM | MDA-MB-231 1.66 µM | MDA-MB-435 1.28 µM | NCI-H460 4.44 µM | OVCAR-5 3.01 µM | PC-3 3.07 µM | SNB-19 5.98 µM | UO-31 1.77 µM
1.34 µM: HCT-15

CN(C)CCC(=O)N1C/C(=C/c2ccccc2)C(=O)/C(=C\c2ccccc2)C1
active: CCRF-CEM 0.191 µM | HCC 2998 1.06 µM | HL-60 0.356 µM | KM12 0.55 µM | MCF7 0.349 µM | MDA-MB-231 0.735 µM
inactive: A498 3.12 µM | ACHN 2.01 µM | COLO 205 2.24 µM | HOP-62 7.31 µM | M14 1.91 µM | MDA-MB-435 1.43 µM | NCI-H460 2.33 µM | OVCAR-3 2.59 µM | OVCAR-5 2.6 µM | PC-3 1.54 µM | SNB-19 2.48 µM | T47D 4.82 µM | UO-31 2.36 µM
1.05 µM: HCT-15

COC(=O)CCc1ccc2c(c1)C(=O)CC2
inactive: A498 > 100 µM | ACHN > 100 µM | CCRF-CEM > 100 µM | HCC 2998 > 100 µM | HL-60 > 100 µM | HOP-62 > 100 µM | M14 > 100 µM | MCF7 > 100 µM | MDA-MB-231 > 100 µM | MDA-MB-435 > 100 µM | NCI-H460 > 100 µM | OVCAR-3 > 100 µM | OVCAR-5 > 100 µM | PC-3 > 100 µM | SNB-19 > 100 µM | T47D > 100 µM | UO-31 > 100 µM
> 100 µM: HCT-15

CC(=O)OCC1OC(Nc2ccc3nc(C)n(-c4cccc(C)c4)c(=O)c3c2)C(OC(C)=O)C(OC(C)=O)C1OC(C)=O (centres undefined)
inactive: A498 > 62.5 µM | ACHN > 62.5 µM | COLO 205 > 62.5 µM | HCC 2998 > 62.5 µM | HL-60 > 62.5 µM | HOP-62 > 62.5 µM | KM12 > 62.5 µM | MCF7 > 62.5 µM | MDA-MB-231 > 62.5 µM | MDA-MB-435 > 62.5 µM | NCI-H460 > 62.5 µM | OVCAR-3 > 62.5 µM | OVCAR-5 > 62.5 µM | PC-3 > 62.5 µM | SNB-19 > 62.5 µM | T47D > 62.5 µM | UO-31 > 62.5 µM
> 62.5 µM: HCT-15

C=CCOc1ccc(C(=N/NC(=O)c2ccccc2)/N=N/c2ccc([N+](=O)[O-])cc2)cc1OC
> 100 µM: HCT-15
inactive: A498 > 100 µM | ACHN > 100 µM | CCRF-CEM > 100 µM | COLO 205 > 100 µM | HCC 2998 74.1 µM | HL-60 93.3 µM | HOP-62 > 100 µM | KM12 > 100 µM | M14 > 100 µM | MCF7 > 100 µM | MDA-MB-231 > 100 µM | MDA-MB-435 > 100 µM | NCI-H460 64.1 µM | OVCAR-3 > 100 µM | OVCAR-5 > 100 µM | PC-3 > 100 µM | SNB-19 > 100 µM | T47D 29 µM | UO-31 > 100 µM

Cc1ccc(S(=O)(=O)N(CC(O)COc2ccccc2)c2c(F)cccc2F)cc1 (centres undefined)
inactive: A498 19.6 µM | ACHN 17.3 µM | CCRF-CEM 28.7 µM | COLO 205 14.7 µM | HCC 2998 21.1 µM | HL-60 29.4 µM | HOP-62 19.2 µM | KM12 17.7 µM | M14 15.5 µM | MCF7 15.7 µM | MDA-MB-231 17.9 µM | MDA-MB-435 15.4 µM | NCI-H460 15.1 µM | OVCAR-3 11.6 µM | OVCAR-5 38 µM | PC-3 14.3 µM | SNB-19 33.3 µM | T47D 2.21 µM | UO-31 15.7 µM
16.1 µM: HCT-15

C=C1CC2[C@H](C)C(=O)CCC2(C)C2=C1C1CCC(C(C)CCC(=C)C(C)C(=O)O)C1(C)CC2=O (some centres undefined)
inactive: A498 > 100 µM | ACHN 31.9 µM | CCRF-CEM 11.8 µM | COLO 205 49.4 µM | HCC 2998 47 µM | HL-60 15.2 µM | HOP-62 45.4 µM | KM12 71.4 µM | M14 > 100 µM | MCF7 83.9 µM | MDA-MB-231 > 100 µM | MDA-MB-435 58.5 µM | NCI-H460 34.4 µM | OVCAR-3 30.5 µM | OVCAR-5 > 100 µM | PC-3 32.1 µM | SNB-19 69.5 µM | T47D 41.6 µM | UO-31 30.9 µM
40.5 µM: HCT-15

COc1ccc2oc(OC)c(CC=C(C)C)c(=O)c2c1C
inactive: A498 > 100 µM | ACHN > 100 µM | CCRF-CEM > 100 µM | COLO 205 > 100 µM | HCC 2998 > 100 µM | HL-60 > 100 µM | HOP-62 > 100 µM | KM12 > 100 µM | M14 > 100 µM | MCF7 > 100 µM | MDA-MB-231 > 100 µM | MDA-MB-435 > 100 µM | NCI-H460 > 100 µM | OVCAR-3 > 100 µM | OVCAR-5 > 100 µM | PC-3 > 100 µM | SNB-19 > 100 µM | T47D > 100 µM | UO-31 > 100 µM
> 100 µM: HCT-15

COc1ccc(OC)c([N+](=O)[O-])c1-c1nc2sc(C)c(C)n2c1/C=N/N=C(N)N
inactive: A498 > 100 µM | ACHN > 100 µM | CCRF-CEM 50.7 µM | COLO 205 29.9 µM | HCC 2998 46.3 µM | HL-60 25.6 µM | HOP-62 > 100 µM | KM12 20.9 µM | M14 76.7 µM | MCF7 24 µM | MDA-MB-231 76.7 µM | MDA-MB-435 43.1 µM | NCI-H460 91.6 µM | OVCAR-3 > 100 µM | OVCAR-5 > 100 µM | PC-3 40.8 µM | SNB-19 36.3 µM | T47D 23.4 µM | UO-31 > 100 µM
> 100 µM: HCT-15

O=C(NCCCN(CCCCN(CCCNC(=O)C(F)(F)F)Cc1ccc2ccccc2c1)Cc1ccc2ccccc2c1)C(F)(F)F
inactive: A498 > 100 µM | ACHN > 100 µM | CCRF-CEM > 78.2 µM | COLO 205 1.95 µM | HCC 2998 1.53 µM | HOP-62 > 100 µM | KM12 5.83 µM | M14 1.99 µM | MCF7 1.95 µM | MDA-MB-231 > 100 µM | MDA-MB-435 1.9 µM | NCI-H460 2.21 µM | OVCAR-3 > 100 µM | OVCAR-5 > 100 µM | PC-3 6.95 µM | T47D 5.05 µM | UO-31 2.33 µM
active: HL-60 0.74 µM
6.12 µM: HCT-15

COP(=O)(OC)C1=c2c(C)noc2=C2C=COC2C1=O (centres undefined)
> 100 µM: HCT-15
inactive: A498 > 100 µM | ACHN > 100 µM | CCRF-CEM > 100 µM | COLO 205 > 100 µM | HCC 2998 > 100 µM | HL-60 > 100 µM | HOP-62 > 100 µM | KM12 > 100 µM | M14 > 100 µM | MCF7 > 100 µM | MDA-MB-231 56.1 µM | MDA-MB-435 > 100 µM | OVCAR-3 > 100 µM | OVCAR-5 > 100 µM | PC-3 > 100 µM | SNB-19 > 100 µM | T47D > 10 µM | UO-31 > 100 µM

From ChEMBL document CHEMBL1201862, “PubChem BioAssay data set” (2004)
